Entries after “also recorded” stand apart in the source; their conditions may differ.
Columns and labels:
[1] = system: old mice; experiment: Old mouse model: body weight, dietary intake, gastrocnemius weight; assay type: in vivo, 18-month-old C57BL/6 mice
Protocol: An 18-month-old C57BL/6 was purchased, and maintained in the same breeding environment as above the high-fat diet-induced animal model, and fed with a normal chow diet during the experiment. After adapting the old mice to the breeding environment for 1 week, they were randomly divided into a control group and an experimental group, and phosphate-buffered saline was administered to the control group and homoharringtonine (0.545 μg/g body weight) was administered to the experimental group intraperitoneally three times a week for more than 4 months.

[2] = system: animal model with lower limb fixation-induced muscular atrophy; experiment: Animal model with lower limb fixation-induced muscular atrophy: body weight, dietary intake, muscle weights; assay type: in vivo, C57BL/6 male mice; conditions: lower limb fixation mice; 0.545 μg/g i.p. three times a week for 4 weeks; vs phosphate-buffered saline group
Protocol: 8-week-old C57BL/6 male mice were adapted to the breeding environment for 1 week and then treated with homoharringtonine for 1 week, and the left lower limb was fixed using a stapler and maintained for 3 weeks. The animal model with lower limb fixation-induced muscular atrophy is an animal model for inducing muscular atrophy by reducing a load of body weight, and induction was conducted using a skin stapler (Manipler AZ, Utsunomiya, Tochigi, Japan) according to a method of Caron et al. (A novel hindlimb immobilization procedure for studying skeletal muscular atrophy and recovery in mouse. J Appl Physiol. 2009 June; 106(6):2049-59.). The unfixed right side was used as a control group.
For a total of 4 weeks from 1 week before fixation to 3 weeks of fixation, phosphate-buffered saline was administered to the control group and homoharringtonine (0.545 μg/g body weight) was administered to the experimental group three times a week intraperitoneally.

COC(=O)C[C@](O)(CCCC(C)(C)O)C(=O)O[C@@H]1C(OC)=C[C@]23CCCN2CCc2cc4c(cc2[C@H]13)OCO4 [homoharringtonine]
body weight ([1]; 0.545 μg/g i.p. three times a week, vs phosphate-buffered saline group): did not show a significant difference; also recorded: no statistically significant difference | body weight after 6 months of administration ([1]; another experimental group, 6 months of injection, vs control group): no significant difference | body weight [2]: no statistically significant difference
